Measured values from ChEMBL document CHEMBL4184334, “From Cancer to Pain Target by Automated Selectivity Inversion of a Clinical Candidate” (J Med Chem, 2018).
Active and inactive are the calls of the source. The calls are words filed in the database; no cut-off is given here.

Tests used:
Aurora kinase A = biological target: T1, Aurora kinase A (Homo sapiens, UniProt O14965); assay: Inhibition of DNA-tagged human partial length AURKA expressed in mammalian expression system at 100 nM by qPCR method; settings: 0.1 µM
T1 sequence (O14965 whole entry): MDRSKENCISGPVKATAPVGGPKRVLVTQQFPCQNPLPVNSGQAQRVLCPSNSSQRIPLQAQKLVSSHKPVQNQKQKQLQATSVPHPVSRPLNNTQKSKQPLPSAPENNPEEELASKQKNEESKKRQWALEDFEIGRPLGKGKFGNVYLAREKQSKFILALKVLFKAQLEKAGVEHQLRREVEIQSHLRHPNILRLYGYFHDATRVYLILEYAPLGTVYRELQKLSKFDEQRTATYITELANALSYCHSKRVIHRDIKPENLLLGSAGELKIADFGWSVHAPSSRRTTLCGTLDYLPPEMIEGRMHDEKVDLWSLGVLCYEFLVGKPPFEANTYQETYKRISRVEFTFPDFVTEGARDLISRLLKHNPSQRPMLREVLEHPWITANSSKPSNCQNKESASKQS

[1] = biological target: Tyrosine-protein kinase ABL1 (Homo sapiens, UniProt P00519, T315I); assay: Inhibition of DNA-tagged human phosphorylated partial length ABL1 T315I mutant expressed in mammalian expression system at 100 nM by qPCR method; settings: 0.1 µM
[2] = biological target: NT-3 growth factor receptor (Homo sapiens) (UniProt Q16288); assay: Inhibition of DNA-tagged human partial length TrkC expressed in mammalian expression system at 100 nM by qPCR method
NT-3 growth factor receptor (Homo sapiens), sequence (Q16288 32-839 limits assumed): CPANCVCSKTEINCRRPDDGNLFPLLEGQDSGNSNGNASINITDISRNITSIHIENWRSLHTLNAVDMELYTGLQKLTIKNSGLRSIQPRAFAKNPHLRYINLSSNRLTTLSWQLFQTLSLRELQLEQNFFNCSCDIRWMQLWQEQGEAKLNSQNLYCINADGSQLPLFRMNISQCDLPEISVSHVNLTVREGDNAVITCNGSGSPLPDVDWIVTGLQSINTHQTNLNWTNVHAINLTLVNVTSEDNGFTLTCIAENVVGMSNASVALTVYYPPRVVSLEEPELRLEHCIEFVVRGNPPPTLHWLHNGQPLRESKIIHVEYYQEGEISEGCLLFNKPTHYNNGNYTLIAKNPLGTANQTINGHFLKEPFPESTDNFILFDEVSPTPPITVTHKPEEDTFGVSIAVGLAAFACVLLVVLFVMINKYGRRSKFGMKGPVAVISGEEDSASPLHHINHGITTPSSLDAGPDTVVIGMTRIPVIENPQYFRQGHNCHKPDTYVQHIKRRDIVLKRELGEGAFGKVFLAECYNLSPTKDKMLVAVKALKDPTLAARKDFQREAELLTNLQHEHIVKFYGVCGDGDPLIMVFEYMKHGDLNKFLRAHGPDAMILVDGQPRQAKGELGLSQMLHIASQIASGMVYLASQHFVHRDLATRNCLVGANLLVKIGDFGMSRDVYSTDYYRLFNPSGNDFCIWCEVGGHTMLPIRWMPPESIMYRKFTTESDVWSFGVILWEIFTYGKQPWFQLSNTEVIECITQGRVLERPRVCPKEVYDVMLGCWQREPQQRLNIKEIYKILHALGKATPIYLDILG

[3] = biological target: High affinity nerve growth factor receptor (Homo sapiens) (UniProt P04629); assay: Inhibition of DNA-tagged human partial length TrkA expressed in mammalian expression system assessed as remaining activity at 100 nM by qPCR method
High affinity nerve growth factor receptor (Homo sapiens), sequence (P04629 33-796 limits assumed): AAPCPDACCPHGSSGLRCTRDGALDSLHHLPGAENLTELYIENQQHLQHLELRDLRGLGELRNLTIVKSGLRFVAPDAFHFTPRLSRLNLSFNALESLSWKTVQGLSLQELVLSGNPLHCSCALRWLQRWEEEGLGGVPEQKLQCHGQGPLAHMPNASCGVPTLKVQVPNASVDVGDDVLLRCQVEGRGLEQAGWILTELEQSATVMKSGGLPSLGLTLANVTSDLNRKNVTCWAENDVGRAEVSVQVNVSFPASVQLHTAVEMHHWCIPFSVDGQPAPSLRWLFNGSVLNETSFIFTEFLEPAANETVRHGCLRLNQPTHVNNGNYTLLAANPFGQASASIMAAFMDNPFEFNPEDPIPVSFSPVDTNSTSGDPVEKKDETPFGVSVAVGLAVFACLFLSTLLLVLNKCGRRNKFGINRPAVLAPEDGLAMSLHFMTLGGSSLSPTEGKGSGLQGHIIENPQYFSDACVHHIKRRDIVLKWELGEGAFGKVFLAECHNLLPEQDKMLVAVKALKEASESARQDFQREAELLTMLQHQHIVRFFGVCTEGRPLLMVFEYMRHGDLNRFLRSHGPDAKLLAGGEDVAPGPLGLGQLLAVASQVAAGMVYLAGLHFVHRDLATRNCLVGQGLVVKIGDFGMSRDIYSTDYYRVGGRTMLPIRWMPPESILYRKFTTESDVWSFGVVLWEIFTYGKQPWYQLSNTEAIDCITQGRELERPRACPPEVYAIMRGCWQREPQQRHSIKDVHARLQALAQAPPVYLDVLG

[4] = biological target: Platelet-derived growth factor receptor beta (Homo sapiens) (UniProt P09619); assay: Inhibition of DNA-tagged human partial length PDGFRB expressed in mammalian expression system at 100 nM by qPCR method
Platelet-derived growth factor receptor beta (Homo sapiens), sequence (P09619 whole entry): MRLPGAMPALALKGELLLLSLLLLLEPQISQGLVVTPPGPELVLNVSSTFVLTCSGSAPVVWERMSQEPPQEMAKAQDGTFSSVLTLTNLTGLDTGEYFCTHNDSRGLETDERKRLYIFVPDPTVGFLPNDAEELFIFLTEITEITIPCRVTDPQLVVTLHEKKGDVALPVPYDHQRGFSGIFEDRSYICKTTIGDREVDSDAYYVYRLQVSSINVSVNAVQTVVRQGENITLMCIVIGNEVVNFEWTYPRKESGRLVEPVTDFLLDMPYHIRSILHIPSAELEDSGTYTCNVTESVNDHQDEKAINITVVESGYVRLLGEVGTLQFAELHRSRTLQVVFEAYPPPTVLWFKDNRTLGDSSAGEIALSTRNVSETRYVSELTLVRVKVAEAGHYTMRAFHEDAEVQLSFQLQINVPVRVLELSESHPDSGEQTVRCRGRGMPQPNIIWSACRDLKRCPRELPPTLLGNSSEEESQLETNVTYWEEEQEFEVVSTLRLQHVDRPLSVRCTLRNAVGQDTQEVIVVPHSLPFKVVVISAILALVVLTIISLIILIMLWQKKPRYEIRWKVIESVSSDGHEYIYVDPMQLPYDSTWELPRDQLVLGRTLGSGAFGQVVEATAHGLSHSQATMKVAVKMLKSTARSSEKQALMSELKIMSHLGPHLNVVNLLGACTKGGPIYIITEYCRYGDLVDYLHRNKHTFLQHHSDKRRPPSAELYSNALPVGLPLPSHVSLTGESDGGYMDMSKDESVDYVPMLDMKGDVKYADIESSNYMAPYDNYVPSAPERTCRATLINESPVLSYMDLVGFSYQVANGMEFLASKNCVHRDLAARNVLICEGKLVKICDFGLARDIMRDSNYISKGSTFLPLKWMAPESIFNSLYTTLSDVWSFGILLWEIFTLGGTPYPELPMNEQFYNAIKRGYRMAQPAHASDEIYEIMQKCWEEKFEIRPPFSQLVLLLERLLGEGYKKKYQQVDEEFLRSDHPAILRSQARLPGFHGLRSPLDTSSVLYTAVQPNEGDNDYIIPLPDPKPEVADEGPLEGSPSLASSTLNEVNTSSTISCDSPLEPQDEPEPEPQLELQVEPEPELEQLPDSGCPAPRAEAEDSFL

[5] = biological target: Proto-oncogene tyrosine-protein kinase receptor Ret (Homo sapiens) (UniProt P07949); assay: Inhibition of DNA-tagged human partial length RET expressed in bacterial expression system at 100 nM by qPCR method
Proto-oncogene tyrosine-protein kinase receptor Ret (Homo sapiens), sequence (P07949 whole entry, the tested form may be a part): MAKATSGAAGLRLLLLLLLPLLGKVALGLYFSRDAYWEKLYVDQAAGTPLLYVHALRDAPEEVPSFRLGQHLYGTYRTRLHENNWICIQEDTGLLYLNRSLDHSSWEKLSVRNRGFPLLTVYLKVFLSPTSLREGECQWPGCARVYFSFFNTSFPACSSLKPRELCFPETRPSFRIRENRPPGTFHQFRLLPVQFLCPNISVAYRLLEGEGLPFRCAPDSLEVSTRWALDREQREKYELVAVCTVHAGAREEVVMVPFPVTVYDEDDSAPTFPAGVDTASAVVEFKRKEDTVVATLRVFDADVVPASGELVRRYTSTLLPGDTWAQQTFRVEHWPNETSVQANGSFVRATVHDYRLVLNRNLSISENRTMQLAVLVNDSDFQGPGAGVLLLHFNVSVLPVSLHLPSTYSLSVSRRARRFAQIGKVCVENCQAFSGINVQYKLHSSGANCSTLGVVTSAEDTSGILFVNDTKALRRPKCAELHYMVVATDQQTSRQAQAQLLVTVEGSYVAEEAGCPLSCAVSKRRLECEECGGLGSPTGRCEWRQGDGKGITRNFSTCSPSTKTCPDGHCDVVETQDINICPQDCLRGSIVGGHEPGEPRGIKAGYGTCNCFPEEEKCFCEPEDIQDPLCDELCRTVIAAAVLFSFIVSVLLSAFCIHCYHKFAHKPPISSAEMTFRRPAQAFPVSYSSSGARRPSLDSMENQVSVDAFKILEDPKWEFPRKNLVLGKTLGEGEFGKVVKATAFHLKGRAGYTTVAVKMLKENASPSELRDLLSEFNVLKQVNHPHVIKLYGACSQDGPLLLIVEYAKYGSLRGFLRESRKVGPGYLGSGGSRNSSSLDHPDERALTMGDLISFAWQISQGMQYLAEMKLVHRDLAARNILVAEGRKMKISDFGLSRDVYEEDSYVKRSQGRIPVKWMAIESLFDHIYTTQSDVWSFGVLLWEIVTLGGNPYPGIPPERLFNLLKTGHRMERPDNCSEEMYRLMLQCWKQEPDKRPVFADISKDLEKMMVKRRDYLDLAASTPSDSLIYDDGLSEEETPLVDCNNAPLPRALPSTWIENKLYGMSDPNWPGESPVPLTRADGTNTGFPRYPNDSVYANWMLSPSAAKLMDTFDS

[6] = biological target: Tyrosine-protein kinase JAK2 (Homo sapiens, UniProt O60674); assay: Inhibition of DNA-tagged human partial length JAK2 JH1 domain-catalytic expressed in mammalian expression system at 100 nM by qPCR method; settings: 0.1 µM
[7] = biological target: T2, Tyrosine-protein kinase JAK3 (Homo sapiens) (UniProt P52333); assay: Inhibition of DNA-tagged human partial length JAK3 JH1 domain-catalytic expressed in mammalian expression system at 100 nM by qPCR method
T2 sequence (whole entry): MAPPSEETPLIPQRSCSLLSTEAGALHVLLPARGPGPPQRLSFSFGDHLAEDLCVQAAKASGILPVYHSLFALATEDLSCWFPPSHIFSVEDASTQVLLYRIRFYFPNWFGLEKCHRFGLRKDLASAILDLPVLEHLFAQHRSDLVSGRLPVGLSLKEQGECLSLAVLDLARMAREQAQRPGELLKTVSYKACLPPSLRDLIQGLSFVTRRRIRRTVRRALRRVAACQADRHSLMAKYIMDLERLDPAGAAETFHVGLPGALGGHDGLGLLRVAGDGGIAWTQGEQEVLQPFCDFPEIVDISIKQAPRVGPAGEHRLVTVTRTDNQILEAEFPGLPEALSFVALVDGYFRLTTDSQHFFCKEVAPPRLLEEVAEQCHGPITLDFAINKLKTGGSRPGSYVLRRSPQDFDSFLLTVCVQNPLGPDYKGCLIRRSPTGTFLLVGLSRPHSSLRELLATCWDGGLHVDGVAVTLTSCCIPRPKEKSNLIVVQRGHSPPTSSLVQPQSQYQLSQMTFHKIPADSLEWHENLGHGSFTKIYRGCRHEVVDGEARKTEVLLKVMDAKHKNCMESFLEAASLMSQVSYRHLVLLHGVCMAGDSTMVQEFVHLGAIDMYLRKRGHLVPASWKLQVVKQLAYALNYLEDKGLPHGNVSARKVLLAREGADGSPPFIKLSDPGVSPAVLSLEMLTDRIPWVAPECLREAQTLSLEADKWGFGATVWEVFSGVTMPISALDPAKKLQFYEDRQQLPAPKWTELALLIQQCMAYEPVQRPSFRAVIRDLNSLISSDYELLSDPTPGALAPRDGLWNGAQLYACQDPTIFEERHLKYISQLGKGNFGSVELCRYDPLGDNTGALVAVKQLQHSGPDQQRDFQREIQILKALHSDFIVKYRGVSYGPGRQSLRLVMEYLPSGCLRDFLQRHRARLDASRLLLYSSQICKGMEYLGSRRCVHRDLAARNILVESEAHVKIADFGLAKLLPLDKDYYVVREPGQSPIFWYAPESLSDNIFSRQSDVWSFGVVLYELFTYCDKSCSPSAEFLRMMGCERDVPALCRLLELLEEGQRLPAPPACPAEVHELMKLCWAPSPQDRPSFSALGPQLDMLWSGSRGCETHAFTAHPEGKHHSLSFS

[8] = biological target: Tyrosine-protein kinase ABL1 (Homo sapiens, UniProt P00519); assay: Inhibition of DNA-tagged human nonphosphorylated partial length ABL1 expressed in mammalian expression system at 100 nM by qPCR method; settings: 0.1 µM
[9] = biological target: Mast/stem cell growth factor receptor Kit (Homo sapiens) (UniProt P10721); assay: Inhibition of DNA-tagged human partial length KIT expressed in bacterial expression system at 100 nM by qPCR method
Homo sapiens = organism: Homo sapiens; assay: Selectivity ratio of Kd for DNA-tagged human partial length AURKA to Kd for DNA-tagged human partial length TrkA
[10] = biological target: BDNF/NT-3 growth factors receptor (Homo sapiens) (UniProt Q16620); assay: Inhibition of DNA-tagged human partial length TrkB expressed in mammalian expression system at 100 nM by qPCR method
BDNF/NT-3 growth factors receptor (Homo sapiens), sequence (Q16620 32-822 limits assumed): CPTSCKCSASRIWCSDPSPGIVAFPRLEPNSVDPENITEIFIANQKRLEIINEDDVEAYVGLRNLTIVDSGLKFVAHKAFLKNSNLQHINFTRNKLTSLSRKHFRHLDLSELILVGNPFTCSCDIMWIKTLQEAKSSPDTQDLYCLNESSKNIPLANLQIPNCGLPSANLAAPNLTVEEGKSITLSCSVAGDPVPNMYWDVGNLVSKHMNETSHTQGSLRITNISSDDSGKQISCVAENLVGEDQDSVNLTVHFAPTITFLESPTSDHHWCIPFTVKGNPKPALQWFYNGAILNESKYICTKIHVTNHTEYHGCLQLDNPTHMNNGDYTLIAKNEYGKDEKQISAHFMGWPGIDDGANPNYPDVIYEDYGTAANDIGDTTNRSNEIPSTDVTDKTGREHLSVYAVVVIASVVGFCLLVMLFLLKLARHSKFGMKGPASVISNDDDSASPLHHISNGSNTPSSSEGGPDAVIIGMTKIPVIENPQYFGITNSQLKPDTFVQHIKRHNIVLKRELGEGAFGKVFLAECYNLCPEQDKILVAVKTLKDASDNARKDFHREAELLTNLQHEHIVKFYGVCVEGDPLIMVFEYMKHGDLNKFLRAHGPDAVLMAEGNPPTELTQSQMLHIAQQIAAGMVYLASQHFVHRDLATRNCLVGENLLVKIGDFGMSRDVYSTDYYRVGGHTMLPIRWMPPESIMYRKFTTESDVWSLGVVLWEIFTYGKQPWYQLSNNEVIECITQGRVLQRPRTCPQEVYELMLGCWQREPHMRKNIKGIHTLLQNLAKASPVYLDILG

inhibition [2]	inhibition [4]	inhibition [5]	inhibition [10]	Compound	further results
				CN1CCN(c2cc(Nc3cc(C(C)(C)C)[nH]n3)nc(Sc3ccccc3)n2)CC1	inhibition (INH) (Aurora kinase A): Not Active
Active	Active	Active	Active	CN1CCN(c2cc(Nc3cc(-c4cccc(F)c4)[nH]n3)nc(Sc3ccccc3)n2)CC1	inhibition (INH) [1]: Not Active; Activity [3]: < 1%; inhibition (INH) [6]: Not Active; inhibition [7]: inactive; inhibition (INH) [8]: Not Active; inhibition [9]: Active; Selectivity ratio (Homo sapiens): 1000
		Active		Cc1cc(Nc2cc(N3CCN(C)CC3)nc(Sc3ccc(NC(=O)C4CC4)cc3)n2)n[nH]1	
inactive	inactive		inactive	Cc1ccc(CSc2nc(Nc3cc(C)[nH]n3)cc(N3CCN(C)CC3)n2)cc1	
